According to patent EP1857450A1, “Novel enantiomeric compounds for treatment of cardiac arrhythmias and methods of use” (Aryx Therapeutics, priority 1999, dated 2001):

Key:
anesthetized rats = assay: Anti-arrhythmic activity in anesthetized rats (benzene/adrenaline challenge, EKG recording); format: in vivo, Male Sprague-Dawley rats; settings: for protection against tachyarrhythmia (increased heart rate) produced by adrenaline: potency: drug administered from time 0 to time 120 minutes; for time at which activity against VPB is lost: drug administration time 0 to 120 min; for PR interval / QRS interval / QT interval / Heart rate (beats/minute) / Inhibition of tachycardia / Number of VPB / Inhibition of VPB: isolated enantiomer as compared to the respective racemate; for PR interval / QRS interval / QT interval: EKG; for Number of VPB / Inhibition of VPB: benzene/adrenaline challenge; for Inhibition of VPB: 4 mg/kg i.v. then 12 mg/kg/h for 2 hours; for activity against VPB at the end of the washout period: time 180 min; for inhibition of the formation of ventricular premature beats (VPB): whole period of drug administration (time 0 to 120 min)
Description: Male Sprague-Dawley rats with body weights of 410 ± 30 g (Harlan Sprague Dawley Inc., Indianapolis, IN), were anesthetized with sodium pentobarbital (50 mg/kg i.p. - Butler Co., Columbus, OH). The skin from the neck area was removed and the jugular veins on both sides were cleared of connective tissue. Both jugular veins and the left carotid artery were isolated, and the latter tied up cranially with a surgical silk (ETHICON 4-0, Ethicon Inc., Australia). A plastic catheter ([…] 19ga, Vecton Dickinson, Sandy, UT), filled with a solution containing 10% sodium heparin (Elkins-Sinn Inc., Cherry Hill, NJ) in normal saline (100 U/ml sodium heparin), was introduced into the artery and fixed with surgical silk.
The catheter was connected to a pressure transducer (OHMEDA P23-XL, Ohmeda Medical Devices Division Inc., Madison, WI), filled with the same heparinized 0.9% NaCl solution, to register beat-to-beat arterial pressure. Needle electrodes were inserted s.c., and together with the pressure transducer, were joined to a GOULD TA 2000 recorder. Leads II, aVF and intraarterial blood pressure were monitored simultaneously throughout the experiments and recorded at certain intervals at 50 and 200 mm/sec paper speed.
The surgery was completed with an incision on the trachea where a short plastic tubing was placed and the animal was connected to a rodent-model ventilator (HARVARD Model 683, Harvard Apparatus, Inc., Holliston, MA). The animals were ventilated in a controlled way, depending on their spontaneous breathing frequency (55-75/min).
Drug administrations were carried out through i.v. catheters (TERUMO 24 GA*3/4", Terumo Medical Corp., Elkton, MD) inserted into both jugular veins. The left side was used for drug infusions by means of a syringe pump (SAGE INSTRUMENTS, Model 341B, Orion Res. Inc., Boston, MA), and the right side was used for adrenaline injections. The experiments were started after at least 15 minutes of stabilization. Benzene/adrenaline challenges were performed as follows: the respirator inlet was connected to a 50-ml bubbler half-full with benzene (Fisher Scientific, Fair Lawn, NJ) so that the inspired air was saturated with benzene vapor. The animal was ventilated with benzene vapor for two minutes. The tidal volume was typically 1 ml/100g of animal. During the last 30 seconds of benzene ventilation, 10 µg/kg adrenaline solution (in 0.9% NaCl) was injected into the right jugular vein. […] These arrhythmias could be elicited repeatedly. After three control VTs (at -30, -20 and -10 minutes), the test compounds were injected slowly during 30 seconds at a dose of 4 mg/kg i.v., immediately followed by a slow infusion of 12 mg/kg/h for 2 hours. The flow rate during the infusion period was 1 ml/h.
There were 5 rats per test compound and each animal served as its own control. The ability of the different drugs to suppress arrhythmias was tested against repeated benzene/adrenaline challenges at 5, 15, 30, 45, 60, 90, 120 (end of drug infusion), 135, 150, 165 and 180 minutes after the i.v. bolus injection. The amplitudes of the systolic arterial pressure and diastolic arterial pressure […] with the help of a pressure-amplitude calibration curve. Heart rate, number of ventricular complexes during the occurrence of VTs and VPBs, and certain ECG parameters (PR, QRS, QT durations and RR cycle lengths in msec) were also recorded and measured manually. At each time-point, 3-5 cycles were measured and the average values were entered into EXCEL Windows 97. The average and standard deviation for the five experimental animals per compound were calculated.

[1] = format: in vitro ADME; settings: human
Description: Venous blood (60 ml) was collected in heparinized 15-ml Vacutainer® tubes from the forearm of five human volunteers. Each tube contained 1,000 units of heparin sodium salt. The blood was immediately centrifuged at 2,000 g for 10 minutes and the plasma was collected. Immediately after collection, the plasma was divided into 2-ml aliquots in borosilicate glass tubes (5-ml capacity) capped with a plastic stopper. The tubes were then equilibrated in a 37°C-water bath for at least 15 minutes before the test samples were added.
Stock solutions were prepared by dissolving 25 µmoles (about 18 mg) of each of the test compounds in 10 ml of deionized water. To each of the glass tubes containing 2 ml of fresh plasma, equilibrated at 37°C, was added 40 µl of the stock solutions (one test compound per tube). The plasma/stock solutions were then mixed. Samples (250 µl) were collected at time 0 (immediately after mixing test compounds in plasma) and then at 30, 60, 90, 120, 180, 240, and 300 minutes. The test tubes were capped, to avoid concentration due to evaporation, and left in the 37°C bath during the entire experiment. Each aliquot was immediately introduced into a 1.5-ml microfuge tube containing 20 µl of a 0.01% solution of diethyl paranitrophenylphosphate (paraoxon) in ethanol in order to inhibit esterase activity. The tubes were then capped and vortexed, then kept at -20°C until analysis. The samples were thawed and mixed with 750 µl of a 0.1 % solution of trifluoroacetic acid (TFA) in acetonitrile, vortexed for thorough mixing, and then centrifuged at 12,000 g for 15 minutes. The supernatant was collected for injection in the HPLC system.
The HPLC mobile phase consisted of acetonitrile and water containing 0.1% TFA and 400 mg/L benzyltriethylammonium chloride (BTEAC) in the following proportions and flow rates: 85% acetonitrile and 15% water at 2.0 ml/min. The detection wavelength was set at 242 nm, and the injected volume was 100 µL. The HPLC peaks were recorded, and the integrated values were plotted against time using the SIGMAPLOT software version 4.0 for WINDOWS. The resulting curves were fitted to a first-order exponential decay equation from which hydrolysis half-lives were calculated.

Plasma half-life [1] | Structure (SMILES) | protection against tachyarrhythmia (increased heart rate) produced by adrenaline: potency (anesthetized rats) | time at which activity against VPB is lost (anesthetized rats; benzene vapors and adrenaline) | PR interval (anesthetized rats) | QRS interval (anesthetized rats) | QT interval (anesthetized rats) | Heart rate (beats/minute) (anesthetized rats; adrenaline injection) | Inhibition of tachycardia (anesthetized rats; adrenaline injection) | Number of VPB (anesthetized rats) | Inhibition of VPB (anesthetized rats) | activity against VPB at the end of the washout period (anesthetized rats) | duration of effect on tachycardia (anesthetized rats; adrenaline injection) | inhibition of the formation of ventricular premature beats (VPB) (anesthetized rats; benzene vapors and adrenaline) | effects on the PR segment of the EKG recording (Class-IV activity): potency (anesthetized rats; rat, in vivo) | effects on the QT segment of the EKG recording (Class-III properties): potency (anesthetized rats; rat, in vivo) | activity against VPB of the racemate relative to the enantiomers (anesthetized rats; benzene vapors and adrenaline)
– | CC[C@H](C)OC(=O)Cc1oc2ccccc2c1C(=O)c1cc(I)c(OCCN(CC)CC)c(I)c1 [ATI-2042] | very good protection against this tachyarrhythmia | – | – | – | – | – | – | – | – | – | – | – | – | – | –
– | CCN(CC)CCOc1c(I)cc(C(=O)c2c(CC(=O)OC(C)C(C)C)oc3ccccc23)cc1I (stereo not drawn) [ATI-2055] | inhibits the tachycardia | – | – | – | – | – | – | – | – | – | – | – | – | – | –
5.0 h | CC[C@@H](C)OC(=O)Cc1oc2ccccc2c1C(=O)c1cc(I)c(OCCN(CC)CC)c(I)c1 [Compound R-2042, (R)-sec-Butyl 2-[3-(3,5-diiodo-4-(2-diethylaminoethyloxy)benzoyl)]benzofurane-acetate] | – | ~100 min | shorter | no change | no change | lower | longer | lower | longer | completely inactive | – | – | – | – | –
11.7 h | CCN(CC)CCOc1c(I)cc(C(=O)c2c(CC(=O)O[C@H](C)C(C)C)oc3ccccc23)cc1I [Compound R-2055, (R)-(3-Methyl)-2butyl 2-[3-(3,5-diiodo-4-(2-diethylaminoethyloxy)benzoyl)]benzo-furaneacetate] | – | – | shorter | longer | no change | lower | longer | lower | longer | still retained part of its activity | longer-lasting effect than S-2055 | totally inhibited the formation of ventricular premature beats | – | – | –
8.8 h | CCN(CC)CCOc1c(I)cc(C(=O)c2c(CC(=O)O[C@@H](C)C(C)C)oc3ccccc23)cc1I [Compound S-2055, (S) - (3 - Methyl) - 2 butyl 2-[3-(3,5-diiodo-4-(2-diethylaminoethyloacy)benzoyl)]benzo-furaneacetate] | – | ~40 min | shorter | longer | no change | lower | longer | lower | longer | completely inactive | – | – | – | – | –
– | CC[C@H](C)OC(=O)Cc1oc2ccccc2c1C(=O)c1cc(I)c(OCCN(CC)CC)c(I)c1 [R,S-2042] | the least potent and shortest acting | – | – | – | – | – | – | – | – | – | – | – | – | – | even less active than either the R- or the S-isomer

Structure (SMILES) | Plasma half-life [1] | protection against tachyarrhythmia (increased heart rate) produced by adrenaline: potency (anesthetized rats) | time at which activity against VPB is lost (anesthetized rats; benzene vapors and adrenaline) | PR interval (anesthetized rats) | QRS interval (anesthetized rats) | QT interval (anesthetized rats) | Heart rate (beats/minute) (anesthetized rats; adrenaline injection) | Inhibition of tachycardia (anesthetized rats; adrenaline injection) | Number of VPB (anesthetized rats) | Inhibition of VPB (anesthetized rats) | activity against VPB at the end of the washout period (anesthetized rats) | duration of effect on tachycardia (anesthetized rats; adrenaline injection) | inhibition of the formation of ventricular premature beats (VPB) (anesthetized rats; benzene vapors and adrenaline) | effects on the PR segment of the EKG recording (Class-IV activity): potency (anesthetized rats; rat, in vivo) | effects on the QT segment of the EKG recording (Class-III properties): potency (anesthetized rats; rat, in vivo) | activity against VPB of the racemate relative to the enantiomers (anesthetized rats; benzene vapors and adrenaline)
CC[C@H](C)OC(=O)Cc1oc2ccccc2c1C(=O)c1cc(I)c(OCCN(CC)CC)c(I)c1 [Compound S-2042, (S)-sec-Butyl 2-[3-(3,5-diiodo-4-(2-diethylaminoethytoxy)benzoyl)]benzofurane-acetate] | 7.3 h | more potent and longer acting then R-2042 | – | longer | longer | longer | lower | longer | lower | longer | still retained part of its activity | – | totally inhibited the formation of ventricular premature beats | much more potent than R-2042 and the racemate R,S-2042 | the most potent and the longest acting | –
